Results on 20 molecules are retold here after patent EP4775577A1, “RAS INHIBITOR” (Tyligand Bioscience (Shanghai) Limited, priority 2023, dated 2025).

SMILES strings stand for the structures. Read-outs that look alike come from different tables or passages of the source.

In assay [1] the test system is KRAS G12V mutant NCI-H727 cells. In words: Proliferation inhibition of NCI-H727 cells, 3D CellTiter-Glo assay (Method B). In kind it is cell-based, human. Particulars: Method B, 3D culture with 0.65% methylcellulose, 5 days, CTG, read-out: NCI-H727 IC50/nM. The method, then: NCI-H727 cells (Nanjing Kebai Biotechnology Co., Ltd., catalog number CBP60182, adherent, culture medium RPMI-1640+10%FBS (GIBCO, Cat#10091-148)) were cultured at 37°C, 5% CO2, and 95% humidity.
3D cell viability assay: Cells in the logarithmic growth phase were harvested and counted using a platelet counter. Cell viability was assessed using the trypan blue exclusion method to ensure a viability of over 90%. The 3D cell culture medium was prepared by adding 1% MC (methylcellulose, Sigma, Cat#M0512) to RPMI-1640 medium and 10% FBS. The cell concentration was adjusted to approximately 25,000 cells/mL using the 3D medium, and the methylcellulose (MC) content was set to 0.65%. Then, 80 µL of cell suspension was added to each 96-well clear, flat-bottomed, black-walled plate (Greiner, Cat# 655096). The cells in the 96-well plates were cultured overnight at 37°C and 5% CO2.
Drug preparation for IC50 assay: A 5-fold drug solution was prepared using culture medium. 20 µL of the drug solution was added to each well of a 96-well plate seeded with cells to achieve a working concentration of up to 10 µM, with a 3× dilution, and 9 concentrations. 2 replicate wells for each drug concentration were set. The cells in the drug-treated 96-well plates were cultured at 37°C and 5% CO2 for additional 5 days, then CTG assay (CellTiter-Glo® Luminescent Cell Viability Assay (Promega, Cat#G7573)) were performed.
The cell plate was equilibrated to room temperature for 30 minutes and the CTG reagent was thawed. 50 µL of CTG solution was added to each well for detection and the plate was shaken on an orbital shaker for 5 minutes to lyse the cells. The cell plate was then placed at room temperature for 25 minutes to stabilize the cryo-luminescence signal, and the cryo-luminescence value was read (EnVision® multi-plate reader, PerkinElmer#2105).
(§1) Data was analyzed using GraphPad Prism software. The dose-response-inhibition equation was used to fit the data to obtain the dose-response curve, and the IC50 value (nM) was calculated accordingly. [formula]

Assay [2] relates to KRAS G12D mutant AGS cells. Briefly: Proliferation inhibition of AGS cells, CellTiter-Glo assay. Particulars: 3 days, CTG, read-out: AGS IC50/nM. The format is cell-based, human. The protocol: AGS cells (Nanjing Kebai Biotechnology Co., Ltd., catalog number CBP60476, adherent, culture medium (F12K Nutrient Mixture+10% FBS (GIBCO, Cat#10091-148) were cultured at 37°C, 5% CO2, and 95% humidity at a density of 1500 cells/well. Cells in the logarithmic growth phase were harvested and counted using a Countstar automated cell counter based on the classic trypan blue staining method to ensure cell viability was above 90%. The cell concentration was adjusted, and 80 µL of cell suspension was added to each 96-well clear flat-bottomed, black-walled plate (Greiner, Cat# 655090). The cells in the 96-well plates were then cultured at 37°C and 5% CO2.
Drug preparation for IC50 assay: A 5-fold drug solution was prepared using culture medium. 20 µL of the drug solution was added to each well of a 96-well plate seeded with cells to achieve a working concentration of up to 10 µM, with a 3 × dilution, and a total of 9 concentrations. 2 replicate wells for each drug concentration were set. The cells in the drug-treated 96-well plates were cultured at 37°C and 5% CO2 for additional 3 days and then CTG assay were performed.
The cell plate was equilibrated to room temperature for 30 minutes and the CTG reagent (CellTiter-Glo® Luminescent Cell Viability Assay (Promega, Cat# G7573)) was thawed. 50 µL of CTG solution was added to each well and the plate was shaken on an orbital shaker for 2 minutes to lyse the cells. The cell plate was placed at room temperature for 10 minutes to stabilize the cryo-luminescence signal and the cryo-luminescence value was read (EnVision® Multifunctional microplate reader, PerkinElmer #2105).
as §1

For the molecule `CN1CC[C@H](C(F)F)[C@](C)(COc2nc(N3CCOC[C@@](C)(O)C3)c3cc([N+](=O)[O-])c(-c4cccc5sc(N)c(C#N)c45)c(F)c3n2)C1` (atropisomer, axis not shown; (Ra)) [Example 86A], the IC50 in assay [1] stood at 1.9 nM; in assay [2] it was 4.9 nM.
Consider `CN1CC/C(=C\F)[C@](C)(COc2nc(N3CCCn4nc(C(=O)N(C)C)cc4C3)c3cc(Cl)c(-c4c(F)ccc5sc(N)c(C#N)c45)c(F)c3n2)C1` (atropisomer, axis not shown; (Sa)) [Example 93B, (Sa)-5-(7-(2-amino-3-cyano-5-fluorobenzo[b]thiophene-4-yl)-6-chloro-8-fluoro-2-(((S,E)-4-(fluoromethylene)-1,3-dimethylpiperidine-3-yl)methoxy)quinazoline-4-yl)-N,N-dimethyl-5,6,7,8-tetrahydro-4H-pyrazolo[1,5-a][1,4]diazepine-2-formamide·formate], for which the IC50 turned out to be 191 nM in assay [1] and 178 nM in assay [2].
Consider `CN1CC/C(=C\F)[C@](C)(COc2nc(N3CCCn4nc(C(=O)N(C)C)cc4C3)c3cc(Cl)c(-c4cccc5sc(N)c(C#N)c45)c(F)c3n2)C1` (atropisomer, axis not shown; (Sa)) [Example 94A, (Sa)-5-(7-(2-amino-3-cyanobenzo[b]thiophene-4-yl)-6-chloro-8-fluoro-2-(((S,E)-4-(fluoromethylene)-1,3-dimethylpiperidine-3-yl)methoxy)quinazoline-4-yl)-N,N-dimethyl-5,6,7,8-tetrahydro-4H-pyrazolo[1,5-a][1,4]diazepine-2-formamide·formate], for which the IC50 was determined as 9 nM in assay [1] (Homo sapiens, NCI-H727, 120 h) and 3.3 nM in assay [2] (Homo sapiens, AGS, 72 h).
For `CN1CC/C(=C\F)[C@](C)(COc2nc(N3CCCn4nc(C(=O)N(C)C)cc4C3)c3cc(/C=C\F)c(-c4cccc5sc(N)c(C#N)c45)c(F)c3n2)C1` (single isomer, unassigned) [Example 112B], in that order: 11 nM and 5.3 nM.
Taken in the same sequence, the figures for `CN1CC/C(=C\F)[C@](C)(COc2nc(N3CCCn4nc(C(=O)N(C)C)c(C#N)c4C3)c3cc(C(F)(F)F)c(-c4cccc5sc(N)c(C#N)c45)c(F)c3n2)C1` (single isomer, unassigned) [Example 119B] were 6.9 nM and under 1.5 nM.
With `CN1CC/C(=C\F)[C@](C)(COc2nc(N3CCCn4nc(C(=O)N(C)C)c(Cl)c4C3)c3cc(C4CC4)c(-c4c(F)ccc5sc(N)c(C#N)c45)c(F)c3n2)C1` (single isomer, unassigned) [Example 161A], the IC50 in assay [1] (Homo sapiens, NCI-H727, 120 h) was 4.3 nM; in assay [2], 2.4 nM.
Turning to `CCc1cc2c(N3Cc4cc(C(=O)N(C)C)nn4CC[C@@H]3C)nc(OC[C@]3(C)CN(C)CC/C3=C\F)nc2c(F)c1-c1c(C)ccc2[nH]ncc12` (single isomer, unassigned) [Example 172A], the IC50 in assay [1] (Homo sapiens, NCI-H727, 120 h) was 419 nM; in assay [2] (Homo sapiens, AGS, 72 h) it was 199 nM.
Taken in the same sequence, the figures for `[2H]C([2H])([2H])N1CC/C(=C\F)[C@](C)(COc2nc(N3Cc4c(Cl)c(C(=O)N(C)C)nn4CC[C@@H]3C)c3cc(CC)c(-c4c(F)ccc5sc(N)c(C#N)c45)c(F)c3n2)C1` (single isomer, unassigned) [Example 182A] were under 1.5 nM and 2 nM.
For `[2H]C([2H])([2H])N1CC/C(=C\F)[C@](C)(COc2nc(N3Cc4c(C)c(C(=O)N(C)C)nn4CC[C@@H]3C)c3cc(CC)c(-c4c(F)ccc5sc(N)c(C#N)c45)c(F)c3n2)C1` (single isomer, unassigned) [Example 183A], in that order: under 1.5 nM and under 1.5 nM.
For the molecule `[2H]C([2H])([2H])N1CC/C(=C\F)[C@](C)(COc2nc(N3Cc4c(C#C)c(C(=O)N(C)C)nn4CC[C@@H]3C)c3cc(CC)c(-c4c(F)ccc5sc(N)c(C#N)c45)c(F)c3n2)C1` (single isomer, unassigned) [Example 184A], the IC50 in assay [1] (Homo sapiens, NCI-H727, 120 h) was 4.3 nM; in assay [2] (Homo sapiens, AGS, 72 h) it was 3.4 nM.
For `[2H]C([2H])([2H])N1CCC(=CF)C(C)(COc2nc(N3Cc4cc(C(=O)N(C([2H])([2H])[2H])C([2H])([2H])[2H])nn4CCC3C)c3cc(CC)c(-c4c(F)ccc5sc(N)c(C#N)c45)c(F)c3n2)C1` (single isomer, unassigned) [Example 185A], in that order: under 1.5 nM and under 1.5 nM.
For `Cc1cc(N)nc(-c2c(Cl)cc3c(N4Cc5cc(C(=O)N(C)C)nn5CCC4C)nc(OCC4(C)CN(C)CCC4=CF)nc3c2F)c1C(F)(F)F` (single isomer, unassigned) [Example 213A], in that order: 43.1 nM and 49.6 nM.
For `COCc1cc2c(N3Cc4cc(C(=O)N(C)C)nn4CC[C@@H]3C)nc(OC[C@]3(C)CN(C)CC/C3=C\F)nc2c(F)c1-c1c(F)ccc2sc(N)c(C#N)c12` (single isomer, unassigned) [Example 226A], in that order: 39.8 nM and 19.7 nM.
Take `CCN1CC/C(=C\F)[C@](C)(COc2nc(N3Cc4c(COC)c(C(=O)N(C)C)nn4CC[C@@H]3C)c3cc(C(F)(F)F)c(-c4ncc(F)c5sc(N)c(C#N)c45)c(F)c3n2)C1` (single isomer, unassigned) [Example 230A]: the IC50 came to 2.2 nM in assay [1] (Homo sapiens, NCI-H727, 120 h) and 1.7 nM in assay [2] (Homo sapiens, AGS, 72 h).
For `CCN1CC/C(=C\F)[C@](C)(COc2nc(N3Cc4cc(C(=O)N(C)C)nn4CC[C@@H]3C)c3cc(Cl)c(-c4ncc(F)c5sc(N)c(C#N)c45)c(F)c3n2)C1` (single isomer, unassigned) [Example 231A], in that order: 4.4 nM and 2.5 nM.
For `CCN1CC/C(=C\F)[C@](C)(COc2nc(N3Cc4c(OC)c(C(=O)N(C)C)nn4CC[C@@H]3C)c3cc(Cl)c(-c4c(F)ccc5sc(N)c(C#N)c45)c(F)c3n2)C1` (single isomer, unassigned) [Example 234A], in that order: under 1.5 nM and under 1.5 nM.
Taken in the same sequence, the figures for `CCN1CC/C(=C\F)[C@](C)(COc2nc(N3Cc4c(COC)c(C(=O)N(C)C)nn4CC[C@@H]3C)c3cc(Cl)c(-c4ncc(F)c5sc(N)c(C#N)c45)c(C)c3n2)C1` (single isomer, unassigned) [Example 238A] were 6.5 nM and 11.5 nM.
`CCN1CC/C(=C\F)[C@](C)(COc2nc(N3Cc4cc(C(=O)N(C)C)nn4CC[C@@H]3C)c3cc(Cl)c(-c4c(F)ccc5sc(N)c(C#N)c45)c(C(F)F)c3n2)C1` (single isomer, unassigned) [Example 242A]: the IC50 turned out to be 6.3 nM in assay [1] (Homo sapiens, NCI-H727, 120 h) and 5.4 nM in assay [2] (Homo sapiens, AGS, 72 h).
Taken in the same sequence, the figures for `CCN1CC/C(=C\F)[C@](C)(COc2nc(N3Cc4cc(C(=O)N(C)C)nn4CC[C@@H]3C)c3cc(C(F)(F)F)c(-c4c(F)ccc5sc(N)c(C#N)c45)c(F)c3n2)C1` (single isomer, unassigned) [Example 248A] were under 1.5 nM and under 1.5 nM.
Turning to `CN1CC/C(=C\F)[C@](C)(COc2nc(N3CC[C@@H](C#N)[C@H](O)C3)c3cc(C(F)(F)F)c(-c4c(F)ccc5sc(N)c(C#N)c45)c(F)c3n2)C1` (single isomer, unassigned) [Example 252], the IC50 in assay [1] (Homo sapiens, NCI-H727, 120 h) stood at 2.1 nM; in assay [2] (Homo sapiens, AGS, 72 h), 41.5 nM.
